Assay [1] addresses T1, HSA (Homo sapiens, UniProt P02768).
T1 construct: HSA and Tris were obtained from Sigma-Aldrich, St. Louis, MI, USA; purchased Sigma-Aldrich
The following applies: level of the Ka value; cited from earlier work.

Assay [2] deals with T1, HSA. Nature of the assay: Fluorescence quenching / fluorescence–thermodynamic experiment with HSA. Type of assay: binding. The following applies: for Ksv: Stern–Volmer quenching constant, Tris-HCl pH 7.4; for Kd: Ka, binding constant, double logarithmic equation; for ∆H: enthalpy change of binding; for ∆H / ∆S: from Ka at 298, 303, 310 K; for ∆S: entropy change of binding; for fluorescence quenching mechanism: from Kq and trend of Ksv with temperature; for main binding forces: from signs of ΔH and ΔS. On the procedure:
Prior to taking steady-state fluorescence measurements, the HSA and ligand mixture solution was given 2 min to equilibrate.
To account for the ligand concentration in the study system, which was much lower than the 10^−5 M level, the inner-filter effect of the ligand was neglected. The Stern–Volmer equation and double logarithmic equation (Equations (1)–(3)) were used to analyze the data of fluorescence spectra. Thermodynamic parameters were obtained using Equation (4) to determine the driving forces in the binding process. […] In addition, R and T are the gas constant at room temperature and the temperature in Kelvin, respectively.

For assay [3], the target named is T1, HSA. In words: Site-specific competitive experiment (fluorescence) with site markers. Type of assay: binding. The following applies: for Kd: Ka, room temperature, n = 3; for primary binding site on HSA: site-marker competition. On the procedure: The site-specific competitive experiment was conducted following the methodology described in the literature, using […], ibuprofen, and phenylbutazone as site-specific probes. First, a 1:1 complex of the site-specific probe with HSA was prepared in the buffer solution. […] This experiment was conducted under the same test conditions as the thermodynamic experiment, except at room temperature.

Assay [4] has as its target T1, HSA. Nature of the assay: Three-dimensional fluorescence spectra of HSA with ligand. The note with it: [HSA] = [ligand] = 1.0 × 10^−6 M; for Peak 1 ∆λ: free HSA 62; for Peak 2 ∆λ: free HSA 109; for Peak 2 λex/λem: free HSA 225/334; for Peak 1 λex/λem: free HSA 279/341; for Peak 1 F: free HSA 368.7; for Peak 2 F: free HSA 801.7; for change of Stokes shift of peak 2: versus free HSA.

Assay [5] has as its target T1, HSA. In words: Circular dichroism spectroscopy, HSA secondary structure (CONTINLL). The following applies: [HSA] = [ligand] = 1.0 × 10^−6 M; for β-Sheet: free HSA 7.7; for β-Turn: free HSA 14.1; for Random Coil: free HSA 26.9; for α-Helix: free HSA 51.4. From the text: The concentration of HSA and the ligands was set as 1.0 × 10^−6 M. The instrumental parameters were set as follows: path length of 1 mm and scanning speed of 100 nm min^−1.
Background: Circular dichroism is widely used to follow secondary structure.

Assay [6] deals with T1, HSA. Nature of the assay: Site-specific competitive experiment (fluorescence) with site markers. It counts as binding. The following applies: Ka, with Digoxigenin, [Ligands]/[Site Marker] 1:1; room temperature; n = 3.
Where [7] appears, read: 298 K, quenching rate constant, Kq=Ksv/τ0, τ0 6.30 ns.
Where [8] appears, read: 303 K, quenching rate constant, Kq=Ksv/τ0, τ0 6.30 ns.
The mark [9] stands for this setting: 310 K, quenching rate constant, Kq=Ksv/τ0, τ0 6.30 ns.
The mark [10] stands for this setting: compared with maximum scattering collision quenching rate constant for dynamic quenching.
Where [11] appears, read: Control group, [Ligands]/[Site Marker] 1:0.
The mark [12] stands for this setting: with Ibuprofen, [Ligands]/[Site Marker] 1:1.
Where [13] appears, read: with Phenylbutazone, [Ligands]/[Site Marker] 1:1.

The values that follow come from paper PMC10487517, “Impacts of Halogen Substitutions on Bisphenol A Compounds Interaction with Human Serum Albumin: Exploring from Spectroscopic Techniques and Computer Simulations” (International Journal of Molecular Sciences, 2023).

T1 sequence (P02768 25-609): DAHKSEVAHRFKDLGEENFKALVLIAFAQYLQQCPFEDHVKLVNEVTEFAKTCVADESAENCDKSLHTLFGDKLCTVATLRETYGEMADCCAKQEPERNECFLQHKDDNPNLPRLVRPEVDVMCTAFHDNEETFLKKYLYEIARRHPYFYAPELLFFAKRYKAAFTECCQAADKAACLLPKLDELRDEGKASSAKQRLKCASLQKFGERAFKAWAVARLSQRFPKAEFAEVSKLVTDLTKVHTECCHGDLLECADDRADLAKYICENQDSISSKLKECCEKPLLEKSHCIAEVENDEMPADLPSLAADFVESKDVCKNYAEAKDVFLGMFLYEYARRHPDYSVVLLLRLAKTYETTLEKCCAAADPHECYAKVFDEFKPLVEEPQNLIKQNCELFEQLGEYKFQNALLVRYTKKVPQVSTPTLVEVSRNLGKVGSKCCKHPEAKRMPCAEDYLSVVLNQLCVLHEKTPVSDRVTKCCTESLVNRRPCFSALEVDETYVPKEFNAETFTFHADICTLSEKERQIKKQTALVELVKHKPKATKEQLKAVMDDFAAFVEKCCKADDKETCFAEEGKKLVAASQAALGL

For the molecule `CC(C)(c1ccc(O)cc1)c1ccc(O)cc1` [BPA, Bisphenol A], at HSA [1], the Ka is around 1000 M⁻¹.
A word on the Kd: it is the free concentration of one partner at which half of the binding sites on the other are occupied at equilibrium, for simple one-to-one binding. A lower Kd goes with a tighter complex. In the case of `CC(C)(c1cc(Br)c(O)c(Br)c1)c1cc(Br)c(O)c(Br)c1` [TBBPA, tetrabromobisphenol A], at HSA [2] (298 K), the “∆G” value was -7.906 kcal/mol and the dissociation constant (Kd) was 1600 nM. On HSA [2] (setting [7]), the Kq is recorded as 1.210 10^14 M^−1·s^−1. At HSA [2] (303 K), the “∆G” value was -8.114 kcal/mol, the Ksv is 7.534 10^5 M^−1 and binding was characterised by a dissociation constant (Kd) of 1390 nM. The Kq on HSA [2] (setting [8]) is on record as 1.211 10^14 M^−1·s^−1. At HSA [2] (310 K), the “∆G” value was -8.408 kcal/mol, the Ksv was 7.627 10^5 M^−1 and binding was put at a Kd of 1180 nM. The Kq at HSA [2] (setting [9]) is 1.226 10^14 M^−1·s^−1. The Kq entry on HSA [2] (setting [10]) is on record as “greater than 2.0 × 10^10 M^−1·s^−1”. In addition, at HSA [2], the “∆H” value was 4.587 kcal/mol, the “∆S” value was 175.4 J·moL^−1·K^−1, the fluorescence quenching mechanism entry was “static quenching mechanism” and the main binding forces entry is “hydrophobic interactions”. For the same molecule, the affinity at HSA [3] (setting [11]), expressed as Kd, was 734 nM. On HSA [3] (setting [12]), this molecule gave a dissociation constant (Kd) of 740 nM. This molecule gave a Kd on HSA [3] (setting [13]) of 1230 nM. At HSA [3], the “primary binding site on HSA” value is listed as “site I”. On HSA [4], the “Peak 1 ∆λ” value is 59 nm, the “Peak 2 ∆λ” value amounted to 103 nm, the “Peak 2 λex/λem” value was 225/328 and the “Peak 1 λex/λem” value is on record as 279/338. Further, on HSA [4], the “Peak 1 F” value stood at 254.0, the “Peak 2 F” value was found to be 575.5 and the “change of Stokes shift of peak 2” value is reported as 6 nm. At HSA [5], the β-Sheet was found to be 7.3%, the β-Turn came out at 14.7%, the “Random Coil” value is 29.8% and the α-Helix amounted to 48.2%. This molecule had an equilibrium dissociation constant (Kd) on HSA [6] of 743 nM.
For the molecule `CC(C)(c1cc(Cl)c(O)c(Cl)c1)c1cc(Cl)c(O)c(Cl)c1` [TCBPA, tetrachlorobisphenol A], on HSA [2] (298 K), the “∆G” value is -7.187 kcal/mol and the Kd was 4900 nM. For the same molecule, at HSA [2] (setting [7]), the Kq is 0.2135 10^14 M^−1·s^−1. Further, at HSA [2] (303 K), the “∆G” value is -7.084 kcal/mol; the Ksv was 1.296 10^5 M^−1; the affinity, expressed as Kd, was 9080 nM. The Kq at HSA [2] (setting [8]) was 0.2083 10^14 M^−1·s^−1. At HSA [2] (310 K), the “∆G” value is -6.943 kcal/mol, the Ksv is listed as 1.289 10^5 M^−1 and the Kd was 11900 nM. Moreover, the Kq on HSA [2] (setting [9]) is reported as 0.2073 10^14 M^−1·s^−1. For the same molecule, the Kq result on HSA [2] (setting [10]) was “greater than 2.0 × 10^10 M^−1·s^−1”. Further, at HSA [2], the “∆H” value is -13.23 kcal/mol; the “∆S” value is given as −84.86 J·moL^−1·K^−1; the fluorescence quenching mechanism entry is “mixed quenching mechanism”; the main binding forces entry was “hydrogen bonds and van der Waals forces”. This molecule showed a dissociation constant Kd on HSA [3] (setting [11]) of 1370 nM. In addition, the Kd on HSA [3] (setting [12]) was 1320 nM. For the same molecule, on HSA [3] (setting [13]), the affinity, expressed as Kd, was 3130 nM. For the same molecule, the “primary binding site on HSA” value at HSA [3] is listed as “site I”. In addition, at HSA [4], the “Peak 1 ∆λ” value was found to be 61 nm, the “Peak 2 ∆λ” value was found to be 108 nm, the “Peak 2 λex/λem” value is listed as 226/334 and the “Peak 1 λex/λem” value is on record as 279/340. On HSA [4], the “Peak 1 F” value stood at 323.4, the “Peak 2 F” value is 692.6 and the “change of Stokes shift of peak 2” value is 1 nm. At HSA [5], the β-Sheet is given as 8.2%, the β-Turn is given as 14.2%, the “Random Coil” value is 27.2% and the α-Helix came out at 50.4%. Also, the Kd on HSA [6] was 1280 nM.
